Test results reported in article PMC8274277 (Antiviral Research, 2021).
Where two headings read alike, the source gives them in different places.

Assays:
[1] = tested on: SARS-CoV-2; parameters: species or system golden Syrian hamsters; details: hamster, in vivo
[2] = tested on: SARS-CoV-2; format: cell-based, SARS-CoV-2 strain BavPat1; details: VeroE6 cells
[3] = tested on: SARS-CoV-2; assay: Antiviral assay using bronchial human airway epithelium; format: cell-based, SARS-CoV-2 strain BavPat1
[4] = hospitalized COVID-19 patients; ref Aman et al., 2021; cited from earlier work
[5] = tested on: SARS-CoV-2; assay: Lung histology of infected hamsters; format: in vivo, golden Syrian hamsters; details: sacrificed at 5 dpi

SMILES: NC(=O)c1nc(F)c[nH]c1=O [Favipiravir]
- lung infectious titers (TCID50 assay) [1]: significant reductions
- lung viral RNA yields (RT-qPCR) [1]: significant reductions
- viral replication in clarified lung homogenates and plasma [1]: significant reduction of viral replication

SMILES: O=C(Nc1ccc(OC(F)(F)Cl)cc1)c1cnc(N2CC[C@@H](O)C2)c(-c2cc[nH]n2)c1 [Asciminib]
- selectivity Index (SI, CC50/EC50) [2]: 1.1
- antiviral activity ([2]; SARS-CoV-2): did not show any antiviral activity

SMILES: Cc1ccc(NC(=O)c2ccc(CN3CCN(C)CC3)cc2)cc1Nc1nc(-c2cccnc2)cs1 [Masitinib]
- selectivity Index (SI, CC50/EC50) [2]: 11.5

SMILES: CCC(CC)COC(=O)[C@H](C)N[P@](=O)(OC[C@H]1O[C@@](C#N)(c2ccc3c(N)ncnn23)[C@H](O)[C@@H]1O)Oc1ccccc1 [Remdesivir]
- antiviral activity (viral RNA yields and infectious titres in apical washes) [3]: strong antiviral activity

SMILES: Cc1ccc(NC(=O)c2ccc(CN3CCN(C)CC3)cc2)cc1Nc1nccc(-c2cccnc2)n1 [Imatinib]
- molecular plasma viral loads ([1]; po): did not affect significantly
- time to discontinuation of supplemental oxygen and mechanical ventilation [4]: does not reduce the time to discontinuation of supplemental oxygen and mechanical ventilation
- viral RNA yields in apical washes [3]: small significant reduction
- antiviral activity (viral RNA yields and infectious titres in apical washes) ([3]; […], imatinib 10, 5, remdesivir 10 μM): no other significant antiviral activity
- lung histopathological impairements vs untreated group ([5]; first experiment, 32 mg/day): significant improvement
- lung histopathology grade severity ([5]; second experiment, 32, 16 and 8 mg/day): did not led to a significant improvement
